Source: US20240269139A1, “COMPOUNDS FOR TARGETED PROTEIN DEGRADATION OF KINASES” (DANA-FARBER CANCER INSTITUTE, INC., priority 2020, published 2024)
Where two headings read alike, the source gives them in different places.

Assays:
Type in all cases: cell-based
[1] = target: T1, protein kinases (human kinome) (Homo sapiens, UniProt Q14CZ7); conditions: Accession Q14CZ7, direction down
T1 sequence (Q14CZ7 1-662): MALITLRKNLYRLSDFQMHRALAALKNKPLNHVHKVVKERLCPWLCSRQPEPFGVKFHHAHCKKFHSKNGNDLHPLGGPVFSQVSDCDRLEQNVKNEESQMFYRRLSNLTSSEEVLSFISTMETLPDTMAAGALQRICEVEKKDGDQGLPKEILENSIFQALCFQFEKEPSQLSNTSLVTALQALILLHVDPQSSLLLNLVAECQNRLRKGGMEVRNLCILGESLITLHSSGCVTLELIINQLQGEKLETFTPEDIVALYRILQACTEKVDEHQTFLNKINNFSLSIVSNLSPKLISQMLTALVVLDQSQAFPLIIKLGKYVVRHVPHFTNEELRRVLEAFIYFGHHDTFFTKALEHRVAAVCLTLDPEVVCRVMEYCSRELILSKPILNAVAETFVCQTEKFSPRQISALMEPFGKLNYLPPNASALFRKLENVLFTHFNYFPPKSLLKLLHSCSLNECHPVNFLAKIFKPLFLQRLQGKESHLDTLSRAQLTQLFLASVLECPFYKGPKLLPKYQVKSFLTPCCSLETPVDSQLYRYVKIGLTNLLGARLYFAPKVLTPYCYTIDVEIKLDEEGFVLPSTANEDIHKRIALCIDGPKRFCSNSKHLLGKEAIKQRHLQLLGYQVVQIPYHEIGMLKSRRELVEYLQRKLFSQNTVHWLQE

[2] = target: protein kinases (human kinome) (Homo sapiens, UniProt P41240); conditions: for logFC of CSK: Accession P41240; for logFC CSK: CSK (P41240), down
protein kinases (human kinome) (Homo sapiens, UniProt P41240), sequence (P41240 whole entry): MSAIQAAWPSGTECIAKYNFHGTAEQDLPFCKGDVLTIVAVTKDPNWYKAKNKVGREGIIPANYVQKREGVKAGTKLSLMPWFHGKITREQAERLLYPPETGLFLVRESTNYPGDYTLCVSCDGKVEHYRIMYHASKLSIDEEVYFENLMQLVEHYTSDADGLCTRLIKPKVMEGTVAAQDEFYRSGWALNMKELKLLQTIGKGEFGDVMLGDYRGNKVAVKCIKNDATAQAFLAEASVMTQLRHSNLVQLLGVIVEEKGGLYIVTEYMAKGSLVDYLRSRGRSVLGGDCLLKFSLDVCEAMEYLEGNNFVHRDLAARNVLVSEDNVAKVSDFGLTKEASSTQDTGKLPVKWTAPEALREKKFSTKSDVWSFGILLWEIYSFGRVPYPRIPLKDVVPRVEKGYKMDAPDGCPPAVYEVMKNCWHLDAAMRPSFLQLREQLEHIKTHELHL

[3] = target: protein kinases (human kinome) (Homo sapiens, UniProt Q14289); conditions: for logFC: PTK2B (Q14289-1) protein abundance, degrader vs DMSO, down; for logFC PTK2B: accession Q14289-1, direction of change down
protein kinases (human kinome) (Homo sapiens, UniProt Q14289), sequence (Q14289 whole entry): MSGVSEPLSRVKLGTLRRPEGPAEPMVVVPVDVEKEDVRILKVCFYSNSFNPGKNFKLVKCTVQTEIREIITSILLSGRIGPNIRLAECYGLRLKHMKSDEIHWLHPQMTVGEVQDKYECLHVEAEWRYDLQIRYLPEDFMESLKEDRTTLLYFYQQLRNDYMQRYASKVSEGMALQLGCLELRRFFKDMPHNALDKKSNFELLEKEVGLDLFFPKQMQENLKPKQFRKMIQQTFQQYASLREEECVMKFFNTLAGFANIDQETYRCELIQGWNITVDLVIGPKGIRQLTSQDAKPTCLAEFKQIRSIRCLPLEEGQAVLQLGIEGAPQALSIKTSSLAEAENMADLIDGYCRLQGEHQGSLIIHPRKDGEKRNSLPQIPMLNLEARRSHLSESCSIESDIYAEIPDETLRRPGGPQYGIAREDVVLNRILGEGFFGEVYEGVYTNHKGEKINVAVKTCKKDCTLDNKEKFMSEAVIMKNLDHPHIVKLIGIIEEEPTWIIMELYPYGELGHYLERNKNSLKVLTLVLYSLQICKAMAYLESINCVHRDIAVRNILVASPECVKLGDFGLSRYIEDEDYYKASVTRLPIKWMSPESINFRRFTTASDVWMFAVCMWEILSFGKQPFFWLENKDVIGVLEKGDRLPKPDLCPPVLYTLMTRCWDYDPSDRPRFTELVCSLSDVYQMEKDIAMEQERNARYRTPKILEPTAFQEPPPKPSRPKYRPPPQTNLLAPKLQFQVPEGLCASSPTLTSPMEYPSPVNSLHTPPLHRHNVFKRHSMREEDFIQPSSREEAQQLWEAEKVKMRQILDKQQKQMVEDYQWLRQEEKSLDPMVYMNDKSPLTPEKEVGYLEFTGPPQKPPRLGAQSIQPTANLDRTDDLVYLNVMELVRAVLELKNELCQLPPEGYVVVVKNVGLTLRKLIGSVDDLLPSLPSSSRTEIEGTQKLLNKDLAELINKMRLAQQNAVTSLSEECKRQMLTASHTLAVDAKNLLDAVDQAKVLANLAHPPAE

[4] = target: T2, protein kinases (human kinome) (Homo sapiens, UniProt P33981); conditions: for logFC TTK: Accession P33981
T2 sequence (P33981 1-857): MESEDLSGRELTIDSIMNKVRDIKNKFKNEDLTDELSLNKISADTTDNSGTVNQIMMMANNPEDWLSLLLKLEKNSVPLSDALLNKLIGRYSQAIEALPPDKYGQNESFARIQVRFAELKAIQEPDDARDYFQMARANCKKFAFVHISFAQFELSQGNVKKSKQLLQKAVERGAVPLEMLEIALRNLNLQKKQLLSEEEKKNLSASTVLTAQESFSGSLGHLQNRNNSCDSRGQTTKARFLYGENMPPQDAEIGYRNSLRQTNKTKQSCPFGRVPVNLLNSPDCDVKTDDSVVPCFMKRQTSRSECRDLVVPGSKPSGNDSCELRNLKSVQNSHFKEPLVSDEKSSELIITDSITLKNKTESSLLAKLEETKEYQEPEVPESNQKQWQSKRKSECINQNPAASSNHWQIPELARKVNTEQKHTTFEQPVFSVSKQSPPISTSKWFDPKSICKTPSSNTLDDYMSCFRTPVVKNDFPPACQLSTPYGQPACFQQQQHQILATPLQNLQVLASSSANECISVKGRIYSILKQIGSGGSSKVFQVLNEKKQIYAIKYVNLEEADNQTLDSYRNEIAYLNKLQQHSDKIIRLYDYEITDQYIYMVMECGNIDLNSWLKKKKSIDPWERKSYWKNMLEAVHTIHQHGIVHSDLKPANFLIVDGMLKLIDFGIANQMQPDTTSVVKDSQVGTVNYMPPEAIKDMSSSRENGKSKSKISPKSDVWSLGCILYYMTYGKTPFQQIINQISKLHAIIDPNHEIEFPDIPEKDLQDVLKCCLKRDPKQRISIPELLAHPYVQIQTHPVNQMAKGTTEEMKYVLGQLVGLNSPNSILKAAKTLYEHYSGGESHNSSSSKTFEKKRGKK

Structure (SMILES): CC(=O)c1c(C)c2cnc(Nc3ccc(N4CCN(CCOCCOCCOCCNC(=O)COc5cccc6c5C(=O)N(C5CCC(=O)NC5=O)C6=O)CC4)cn3)nc2n(C2CCCC2)c1=O (stereo not shown) [BSJ.03.123]
- logFC FASTKD3 ([1]; experiment wp084): −0.4728

Structure (SMILES): Nc1ncnc2c1c(-c1ccc(Oc3ccccc3)cc1)nn2[C@H]1CC[C@H](N2CCN(CCOCCNC(=O)CNc3cccc4c3C(=O)N(C3CCC(=O)NC3=O)C4=O)CC2)CC1 (stereo partly shown) [SB1.G.181]
- logFC of CSK ([2]; experiment wp071): −3.229
- logFC CSK ([2]; experiment wp071): −3.229

Structure (SMILES): CS(=O)(=O)Nc1cccc(-c2csc3cnc(Nc4ccc(N5CCN(CCCCCOc6cccc7c6C(=O)N(C6CCC(=O)NC6=O)C7=O)CC5)cc4)nc23)c1 (stereo not shown) [DB0614, N-(3-(2-((4-(4-(5-((2-(2,6-Dioxopiperidin-3-yl)-1,3-dioxoisoindolin-4-yl)oxy)pentyl)piperazin-1-yl)phenyl)amino)thieno[3,2-d]pyrimidin-7-yl)phenyl)methanesulfonamide]
- logFC [3]: −1.425
- logFC PTK2B ([3]; experiment wp045): −1.425

Structure (SMILES): Cc1cnc(Nc2ccc(N3CCN(CCOCCOCCNC(=O)COc4cccc5c4C(=O)N(C4CCC(=O)NC4=O)C5=O)CC3)cc2)nc1Nc1cccc(S(=O)(=O)NC(C)(C)C)c1 (stereo not shown) [JWG.118]
- logFC FASTKD3 ([1]; experiment wp071): −0.4386

Structure (SMILES): Cc1cc(Nc2ncc(Br)c(Nc3cccc(F)c3C(N)=O)n2)ccc1S(=O)(=O)NCCOCCOCCOCCOCCNc1cccc2c1C(=O)N(C1CCC(=O)NC1=O)C2=O (stereo not shown) [TMX.02.174]
- logFC TTK ([4]; experiment wp146): −0.7225
- logFC TTK (P33981) ([4]; experiment wp146): −0.7225
- logFC [3]: −1.512
- logFC PTK2B ([3]; experiment wp146): −1.512

Structure (SMILES): Cc1ccc(NC(=O)c2cccc(C(F)(F)F)c2)cc1N1Cc2cnc(Nc3ccc(N4CCN(CCCCC(=O)N[C@H](C(=O)N5C[C@H](O)C[C@H]5C(=O)N[C@@H](C)c5ccc(-c6scnc6C)cc5)C(C)(C)C)CC4)nc3)nc2N(C)C1=O [DB1113]
- logFC of CSK ([2]; experiment wp168): −1.62
- logFC CSK ([2]; experiment wp168): −1.62

Structure (SMILES): CCc1cnn2c(N(Cc3ccc(N)nc3)C(=O)CCOCCOCCOCCNC(=O)CNc3cccc4c3C(=O)N(C3CCC(=O)NC3=O)C4=O)cc(N3CCCC[C@H]3CCO)nc12 (stereo partly shown) [MFH.5.115.2]
- logFC TTK ([4]; experiment wp076): −0.3249
- logFC TTK (P33981) ([4]; experiment wp076): −0.3249

Structure (SMILES): CC(C)S(=O)(=O)c1ccccc1Nc1nc(Nc2ccc(N3CCN(CCOCCNC(=O)CNc4ccc5c(c4)C(=O)N(C4CCC(=O)NC4=O)C5=O)CC3)cc2)ncc1Cl (stereo not shown) [SK.3.93]
- logFC [3]: −3.269
- logFC PTK2B ([3]; experiment wp016): −3.269

Structure (SMILES): NC(=O)c1c(F)cccc1Nc1nc(Nc2ccc(S(=O)(=O)NCCOCCOCCOCCOCCNc3cccc4c3C(=O)N(C3CCC(=O)NC3=O)C4=O)cc2)ncc1Br (stereo not shown) [TMX.02.138]
- logFC TTK ([4]; experiment wp146): −0.6178
- logFC TTK (P33981) ([4]; experiment wp146): −0.6178
- logFC [3]: −1.24
- logFC PTK2B ([3]; experiment wp146): −1.24

Structure (SMILES): Cc1ccc(NC(=O)c2cccc(C(F)(F)F)c2)cc1N1Cc2cnc(Nc3ccc(N4CCN(CCCOc5cccc6c5C(=O)N(C5CCC(=O)NC5=O)C6=O)CC4)nc3)nc2N(C)C1=O (stereo not shown) [DB0662]
- logFC of CSK ([2]; experiment wp168): −1.833
- logFC CSK ([2]; experiment wp168): −1.833

Structure (SMILES): C=CCn1c(=O)c2cnc(Nc3ccc(N4CCN(CCCNc5cccc6c5C(=O)N(C5CCC(=O)NC5=O)C6=O)CC4)cc3)nc2n1-c1cccc(C(C)(C)O)n1 (stereo not shown) [ZNL.02.096]
- logFC FASTKD3 ([1]; experiment wp056): −0.7131

Structure (SMILES): Cc1ccc(NC(=O)c2cccc(C(F)(F)F)c2)cc1N1Cc2cnc(Nc3ccc(N4CCN(CCCCCCOc5cccc6c5C(=O)N(C5CCC(=O)NC5=O)C6=O)CC4)nc3)nc2N(C)C1=O (stereo not shown) [DB0663]
- logFC of CSK ([2]; experiment wp045): −1.206
- logFC CSK ([2]; experiment wp045): −1.206
- logFC [3]: −1.961
- logFC PTK2B ([3]; experiment wp045): −1.961

Structure (SMILES): CS(=O)(=O)Nc1cccc(-c2csc3cnc(Nc4ccc(N5CCN(CCOCCOCCOc6cccc7c6C(=O)N(C6CCC(=O)NC6=O)C7=O)CC5)cc4)nc23)c1 (stereo not shown) [RSS0628]
- logFC [3]: −1.517
- logFC PTK2B ([3]; experiment wp045): −1.517

Structure (SMILES): O=C1CCC(N2C(=O)c3cccc(NCCCCCCCCN4CCC(NC(=O)c5[nH]ncc5NC(=O)c5c(Cl)cccc5Cl)CC4)c3C2=O)C(=O)N1 (stereo not shown) [MFH.5.126.1]
- logFC TTK ([4]; experiment wp076): −0.4412
- logFC TTK (P33981) ([4]; experiment wp076): −0.4412
